Experimental data taken from patent US20260183302A1, “PDK1 REGULATORY COMPOUND AND COMPOSITION CONTAINING THE SAME” (PROVIBIO CO., LTD., priority 2024, published 2026).
pIC50: −log10 of the molar value.

Experiments:
PDK1 = target: T1, PDK1 (Homo sapiens, UniProt O15530); test: IC50 for inhibiting PDK1 kinase activity; assay type: biochemical
T1 construct: purchased Promega V9681
T1 sequence (O15530 1-556): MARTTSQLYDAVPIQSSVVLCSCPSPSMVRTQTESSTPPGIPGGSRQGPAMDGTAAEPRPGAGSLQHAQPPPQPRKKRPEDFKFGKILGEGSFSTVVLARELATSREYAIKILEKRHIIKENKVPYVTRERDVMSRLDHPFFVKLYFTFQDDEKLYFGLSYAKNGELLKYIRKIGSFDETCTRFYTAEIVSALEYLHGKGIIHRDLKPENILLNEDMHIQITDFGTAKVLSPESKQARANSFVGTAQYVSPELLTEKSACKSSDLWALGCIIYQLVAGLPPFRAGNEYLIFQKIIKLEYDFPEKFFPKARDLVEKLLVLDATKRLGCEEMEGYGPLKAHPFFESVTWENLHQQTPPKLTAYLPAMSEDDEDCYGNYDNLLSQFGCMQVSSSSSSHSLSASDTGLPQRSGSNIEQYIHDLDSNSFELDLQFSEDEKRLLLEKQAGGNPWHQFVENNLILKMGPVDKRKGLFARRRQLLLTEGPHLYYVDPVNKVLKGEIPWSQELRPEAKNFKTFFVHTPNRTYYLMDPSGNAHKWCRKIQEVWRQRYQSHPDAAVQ
Experimental: Additionally, enzyme kinetics analysis was performed to quantitatively analyze the effect of the compounds of the present invention on the enzymatic activity of PDK1 (3-Phosphoinositide-dependent protein kinase-1) and to confirm the inhibition pattern.
Prior to the analysis, the half-maximal inhibitory concentration (IC50) values of the compounds GO15F, GO86, and GO88 of the present invention for inhibiting PDK1 kinase activity were determined, and the results are shown in FIG. 4.

[1] = test system: T cells isolated from mouse spleens; test: T cell proliferation inhibition (CFSE flow cytometry, anti-CD3/anti-CD28 stimulation); assay type: cell-based, C57BL/6 mice; conditions: three days
Method in brief: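 Splenic T cells from 7-week-old C57BL/6 mice, CFSE-labelled, 2× 10^5 cells/well, stimulated with anti-CD3 and anti-CD28 (0.5 μg/mL each). Compound at 10 nM-50 μM in triplicate for three days at 37 °C, 5% CO2; proliferation inhibition (%) derived by flow cytometry.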

[2] = test system: skin graft (BALB/c donor to C57BL/6 recipient); test: In vivo skin graft immune suppression model; parameters: species or system C57BL/6 mice; conditions: 0.15 mg/kg twice daily
Experimental: To evaluate the immune-suppressive effects of the compounds according to the present invention, a skin graft animal model was established, and the efficacy of the compounds was analyzed in the model.
First, female BALB/c mice aged 7 weeks and weighing approximately 20 g were used as donor animals, and female C57BL/6 mice of the same age and weight were used as recipient animals. All experimental animals were supplied by HanabioTech Co., Ltd.
Prior to the experiment, the animals were acclimatized in SPF-certified facilities for one week and then used in the experiment. The housing conditions were maintained at a temperature of 22±2° C., relative humidity of 55+10%, and a 12-hour light-dark cycle.
To establish the skin graft model, a anesthetic solution consisting of ketamine, […], and PBS in a volume ratio of 1:1:3 was administered intraperitoneally to C57BL/6 mice to induce anesthesia.
The hair on the dorsal side of the anesthetized mice was removed and disinfected, followed by excision of the full-thickness skin using an 8 mm punch. Subsequently, skin of the same size was harvested from donor mice (BALB/c) and transplanted. […]
Subsequently, the proportions of CD3- and B220-positive cells were analyzed using a flow cytometer.

12-[4-(2,2-dimethylmorpholin-4-yl)]dodecyl-N-(6-aminopurine-2-yl) carboxamide [Compound 11]
pIC50 (PDK1): 7.95 | Proliferation inhibition rate (%) ([1]; concentration 10 nM): −25.47% | Proliferation inhibition rate (%) ([1]; concentration 100 nM): 100.00% | Proliferation inhibition rate (%) ([1]; concentration 1 μM): 100.00% | Proliferation inhibition rate (%) ([1]; concentration 10 μM): 100.00% | Proliferation inhibition rate (%) ([1]; concentration 30 μM): 100.00% | Proliferation inhibition rate (%) ([1]; concentration 50 μM): 100.00%

Nc1ncccc1C(=O)NCCCCCCCCCCCCN1CCNCC1 [Compound 14, 2-Amino-N-(12-(piperazin-1-yl)dodecyl)nicotinamide]
animals with graft pinkening and good blood flow ([2]; day 10 post-transplantation): three out of five | animals with graft pinkening and good blood flow ([2]; day 15 post-transplantation): one out of five
